Measurements as given in patent publication US20060069132A1, “Azolecarboxamide herbicides” (priority 2004, published 2006).
Where two headings read alike, the source gives them in different places.

Columns and labels:
[1] = tested on: corn; experiment: Test C pre-/postemergence herbicide test; type: in vivo, Zea mays
How it was run: (§1)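 Pre- and postemergence application, solvent/surfactant formulation; post at 1- to 4-leaf stage (2–18 cm). Greenhouse 12–14 d. Visual rating vs controls, 0 = no effect, 100 = complete control.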

[2] = tested on: corn; experiment: Test B pre-/postemergence herbicide test; type: in vivo, Zea mays; conditions: for Corn plant response rating (0 to 100 scale) / Plant response rating, Corn: preemergence
How it was run: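 Response was scored visually 13 to 15 days after treatment against untreated greenhouse controls, 0 meaning no effect and 100 complete control. Formulations (solvent mixture plus surfactant) went onto soil after planting, onto foliage of 1- to 4-leaf plants, and onto 2-leaf plants in a flooded paddy set including rice and barnyardgrass.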

[3] = tested on: kochia; experiment: Test C pre-/postemergence herbicide test; type: in vivo, Kochia scoparia
How it was run: as §1

[4] = tested on: giant foxtail; experiment: Test C pre-/postemergence herbicide test; type: in vivo, Setaria faberi
How it was run: as §1

[5] = tested on: velvetleaf; experiment: Test C pre-/postemergence herbicide test; type: in vivo, Abutilon theophrasti
How it was run: as §1

[6] = tested on: ducksalad; experiment: Test B flooded paddy test; type: in vivo, Heteranthera limosa; conditions: 1000 g ai/ha, scale 0 to 100 (0 no effect, 100 complete control)
How it was run: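 Visual ratings, 0 (no effect) to 100 (complete control), made versus controls after 13–15 d greenhouse. Paddy plants treated at 2-leaf stage; postemergence plants at 1- to 4-leaf stage, 2–18 cm tall.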

[7] = tested on: cocklebur; experiment: Test C pre-/postemergence herbicide test; type: in vivo, Xanthium strumarium; conditions: for Cocklebur plant response rating: Preemergence, 500 g ai/ha
How it was run: as §1

[8] = 62 g ai/ha, preemergence, scale 0 to 100
[9] = 125 g ai/ha, scale 0 (no effect) to 100 (complete control), visual, 12 to 14 days, preemergence
[10] = 250 g ai/ha, scale 0-100, preemergence
[11] = Preemergence, 500 g ai/ha, scale 0 to 100, 0 no effect, 100 complete control
[12] = 125 g ai/ha, 0 = no effect, 100 = complete control
[13] = scale 0 to 100, 0 no effect, 100 complete control
[14] = Postemergence, 250 g ai/ha, scale 0 to 100, 0 no effect, 100 complete control
[15] = postemergence, 125 g ai/ha, scale 0 to 100
[16] = postemergence, 62 g ai/ha, scale 0 to 100
[17] = 125 g ai/ha, visual rating, scale 0 (no effect) to 100 (complete control), postemergence
[18] = 500 g ai/ha, visual rating, 0 = no effect, 100 = complete control
[19] = postemergence, 500 g ai/ha, scale 0 to 100, 0 is no effect, 100 is complete control
[20] = 500 g ai/ha, scale 0 to 100 (0 no effect, 100 complete control), visual, 12 to 14 days, preemergence

CCNC(=O)c1ccc(F)c(NC(=O)c2cn(C(C)(C)C)nc2CC)c1 [Compound 193]
Plant response rating, Corn [1, 8]: 10 | Plant response rating, Corn [1, 9]: 60 | Plant response rating, Corn [1, 10]: 95 | Corn plant response rating [1, 11]: 100 | Corn plant response rating (0 to 100 scale) [2, 12]: 70 | Plant response rating, Corn ([2]; 500 g ai/ha, visual rating 0-100, 0 no effect, 100 complete control): 100 | Corn plant response rating ([2]; postemergence, 125 g ai/ha, visual rating, scale 0 (no effect) to 100 (complete control)): 10 | Corn plant response rating ([2]; postemergence, 500 g ai/ha, visual rating, scale 0 (no effect) to 100 (complete control)): 20 | Plant response rating, Kochia [3, 8]: 85 | Plant response rating, Kochia [3, 9]: 85 | Plant response rating, Kochia [3, 10]: 100 | Kochia plant response rating [3, 11]: 100 | Plant response rating, Foxtail, Giant [4, 8]: 40 | Plant response rating, Foxtail, Giant [4, 9]: 50 | Plant response rating, Foxtail, Giant [4, 10]: 80 | Foxtail, Giant plant response rating [4, 11]: 100 | Plant response rating, Velvetleaf [5, 8]: 0 | Plant response rating, Velvetleaf [5, 9]: 0 | Plant response rating, Velvetleaf [5, 10]: 70 | Velvetleaf plant response rating [5, 11]: 100 | Ducksalad plant response rating ([6]; visual rating, 13 to 15 days): 90 | Plant response rating, Cocklebur [7, 8]: 0 | Cocklebur plant response rating [7, 13]: 100

CCNC(=O)c1cccc(NC(=O)c2nn(C(C)(C)C)cc2Br)c1 [Compound 221, 4-bromo-1-(1,1-dimethylethyl)-N-[3-[(ethylamino)carbonyl]phenyl]-1H-pyrazole-3-carboxamide]
Corn plant response rating (crop injury, 0 = no effect, 100 = complete kill) at 62 g/ha ([1]; Zea mays, pre-emergence, 312 h, 62 g ai/ha, preemergence, scale 0 to 100): 0% | Corn plant response rating (crop injury, 0 = no effect, 100 = complete kill) at 125 g/ha ([1]; Zea mays, pre-emergence, 312 h, 125 g ai/ha, scale 0 (no effect) to 100 (complete control), visual, 12 to 14 days): 0% | Corn plant response rating (crop injury, 0 = no effect, 100 = complete kill) at 250 g/ha ([1]; Zea mays, pre-emergence, 312 h, 250 g ai/ha, scale 0-100): 0% | Corn plant response rating (crop injury, 0 = no effect, 100 = complete kill) at 500 g/ha ([1]; Zea mays, pre-emergence, 312 h, 500 g ai/ha, scale 0 to 100 (0 no effect, 100 complete control), visual, 12 to 14 days): 10% | plant injury at 125 g/ha ([2]; Zea mays, post-emergence, postemergence, 125 g ai/ha, visual rating, scale 0 (no effect) to 100 (complete control), read-out: Corn plant response rating): 10% | plant injury at 500 g/ha ([2]; Zea mays, post-emergence, postemergence, 500 g ai/ha, visual rating, scale 0 (no effect) to 100 (complete control), read-out: Corn plant response rating): 10% | plant injury at 125 g/ha ([2]; Zea mays, pre-emergence, 125 g ai/ha, 0 = no effect, 100 = complete control, read-out: Corn plant response rating (0 to 100 scale)): 0% | Corn plant response rating (crop injury, 0 = no effect, 100 = complete kill) at 500 g/ha ([2]; Zea mays, pre-emergence, 500 g ai/ha, visual rating, 0 = no effect, 100 = complete control): 0% | pest or weed control at 62 g/ha ([3]; Bassia scoparia, pre-emergence, 62 g ai/ha, preemergence, scale 0 to 100, read-out: Plant response rating, Kochia): 0% | pest or weed control at 125 g/ha ([3]; Bassia scoparia, pre-emergence, 125 g ai/ha, scale 0 (no effect) to 100 (complete control), visual, 12 to 14 days, read-out: Plant response rating, Kochia): 0% | pest or weed control at 250 g/ha ([3]; Bassia scoparia, pre-emergence, 250 g ai/ha, scale 0-100, read-out: Plant response rating, Kochia): 65% | pest or weed control at 500 g/ha ([3]; Bassia scoparia, pre-emergence, 500 g ai/ha, scale 0 to 100 (0 no effect, 100 complete control), visual, 12 to 14 days, read-out: Plant response rating, Kochia): 100% | pest or weed control at 62 g/ha ([4]; Setaria faberi, pre-emergence, 312 h, 62 g ai/ha, preemergence, scale 0 to 100, read-out: Plant response rating, Foxtail, Giant): 0% | pest or weed control at 125 g/ha ([4]; Setaria faberi, pre-emergence, 312 h, 125 g ai/ha, scale 0 (no effect) to 100 (complete control), visual, 12 to 14 days, read-out: Plant response rating, Foxtail, Giant): 0% | pest or weed control at 250 g/ha ([4]; Setaria faberi, pre-emergence, 312 h, 250 g ai/ha, scale 0-100, read-out: Plant response rating, Foxtail, Giant): 40% | pest or weed control at 500 g/ha ([4]; Setaria faberi, pre-emergence, 312 h, 500 g ai/ha, scale 0 to 100 (0 no effect, 100 complete control), visual, 12 to 14 days, read-out: Plant response rating, Foxtail, Giant): 90% | pest or weed control at 62 g/ha ([5]; Abutilon theophrasti, pre-emergence, 62 g ai/ha, preemergence, scale 0 to 100, read-out: Plant response rating, Velvetleaf): 0% | pest or weed control at 250 g/ha ([5]; Abutilon theophrasti, pre-emergence, 250 g ai/ha, scale 0-100, read-out: Plant response rating, Velvetleaf): 60% | pest or weed control at 500 g/ha ([5]; Abutilon theophrasti, pre-emergence, 500 g ai/ha, scale 0 to 100 (0 no effect, 100 complete control), visual, 12 to 14 days, read-out: Plant response rating, Velvetleaf): 80% | pest or weed control at 1000 g/ha ([6]; Heteranthera limosa, 336 h, visual rating, 13 to 15 days, read-out: Ducksalad plant response rating): 50% | pest or weed control at 62 g/ha ([7]; Xanthium strumarium, pre-emergence, 312 h, 62 g ai/ha, preemergence, scale 0 to 100, read-out: Plant response rating, Cocklebur): 0% | pest or weed control at 125 g/ha ([7]; Xanthium strumarium, pre-emergence, 312 h, 125 g ai/ha, scale 0 (no effect) to 100 (complete control), visual, 12 to 14 days, read-out: Plant response rating, Cocklebur): 0% | pest or weed control at 250 g/ha ([7]; Xanthium strumarium, pre-emergence, 312 h, 250 g ai/ha, scale 0-100, read-out: Plant response rating, Cocklebur): 0%

CCOC(=O)c1cccc(NC(=O)c2cc(C3(C)CC3)nn2CC)c1 [Compound 295]
Plant response rating, Corn [1, 14]: 15 | Plant response rating, Corn [1, 15]: 10 | Plant response rating, Corn [1, 16]: 5 | Corn plant response rating (0 to 100 scale) [2, 12]: 0 | Corn plant response rating [2, 17]: 10 | Plant response rating, Corn [2, 18]: 10 | Corn plant response rating [2, 19]: 20 | Plant response rating, Kochia [3, 14]: 90 | Plant response rating, Kochia [3, 15]: 85 | Plant response rating, Kochia [3, 16]: 80 | Plant response rating, Foxtail, Giant [4, 14]: 40 | Plant response rating, Foxtail, Giant [4, 15]: 35 | Plant response rating, Foxtail, Giant [4, 16]: 30 | Plant response rating, Velvetleaf [5, 14]: 70 | Plant response rating, Velvetleaf [5, 15]: 65 | Plant response rating, Velvetleaf [5, 16]: 60 | Ducksalad plant response rating [6]: 70 | Plant response rating, Cocklebur [7, 14]: 10 | Plant response rating, Cocklebur [7, 15]: 5 | Plant response rating, Cocklebur ([7]; postemergence, 31 g ai/ha, scale 0 to 100): 5 | Plant response rating, Cocklebur [7, 16]: 5

CCn1nc(C(C)(C)C)cc1C(=O)Nc1ccc(OC)c(OC)c1 [Compound 298]
Plant response rating, Corn [1, 8]: 0 | Plant response rating, Corn [1, 9]: 10 | Plant response rating, Corn [1, 10]: 15 | Plant response rating, Corn [1, 20]: 30 | Corn plant response rating (0 to 100 scale) [2, 12]: 30 | Corn plant response rating [2, 17]: 0 | Plant response rating, Corn [2, 18]: 70 | Corn plant response rating [2, 19]: 10 | Plant response rating, Kochia [3, 8]: 80 | Plant response rating, Kochia [3, 9]: 95 | Plant response rating, Kochia [3, 10]: 100 | Plant response rating, Kochia [3, 20]: 100 | Plant response rating, Foxtail, Giant [4, 8]: 20 | Plant response rating, Foxtail, Giant [4, 9]: 70 | Plant response rating, Foxtail, Giant [4, 10]: 70 | Plant response rating, Foxtail, Giant [4, 20]: 100 | Plant response rating, Velvetleaf [5, 8]: 60 | Plant response rating, Velvetleaf [5, 10]: 100 | Plant response rating, Velvetleaf [5, 20]: 100 | Ducksalad plant response rating [6]: 90 | Plant response rating, Cocklebur [7, 8]: 0 | Plant response rating, Cocklebur [7, 9]: 0 | Plant response rating, Cocklebur [7, 10]: 0 | Cocklebur plant response rating [7, 13]: 0

CCn1nc(C2(C)CC2)cc1C(=O)Nc1cc(C(=O)N2CC=CC2)ccc1F [Compound 301]
Plant response rating, Corn [1, 8]: 10 | Plant response rating, Corn [1, 9]: 10 | Plant response rating, Corn [1, 10]: 40 | Plant response rating, Corn [1, 20]: 45 | Corn plant response rating (0 to 100 scale) [2, 12]: 0 | Corn plant response rating [2, 17]: 50 | Plant response rating, Corn [2, 18]: 10 | Corn plant response rating [2, 19]: 50 | Plant response rating, Kochia [3, 8]: 100 | Plant response rating, Kochia [3, 9]: 100 | Plant response rating, Kochia [3, 10]: 100 | Plant response rating, Kochia [3, 20]: 100 | Plant response rating, Foxtail, Giant [4, 8]: 35 | Plant response rating, Foxtail, Giant [4, 9]: 60 | Plant response rating, Foxtail, Giant [4, 10]: 95 | Plant response rating, Foxtail, Giant [4, 20]: 100 | Plant response rating, Velvetleaf [5, 8]: 20 | Plant response rating, Velvetleaf [5, 10]: 100 | Plant response rating, Velvetleaf [5, 20]: 100 | Ducksalad plant response rating [6]: 90 | Plant response rating, Cocklebur [7, 8]: 0 | Plant response rating, Cocklebur [7, 9]: 0 | Plant response rating, Cocklebur [7, 10]: 0 | Cocklebur plant response rating [7, 13]: 60
